The source of these data is patent US20140378306A1, “USE OF 5-PHENYL- OR 5-BENZYL-2 ISOXAZOLINE-3 CARBOXYLATES FOR IMPROVING PLANT YIELD” (Bayer Intellectual Property GmbH, priority 2011, published 2014).

The subject of one assay is winter oilseed rape. Briefly: Field trial: grain yield effects on winter oilseed rape, sequential application of isoxadifen. It counts as in vivo. The text has this: (§1) The trials have been carried out under natural field conditions (plot trials, 10 square meter plots, 2-4 replications).
(§2) The applications have been done with seed treatment, pre- or post-emergence treatments straight (alone, 1 application) or sequential treatments e.g. seed treatment followed by pre-emergence and/or post-emergence spray applications. The pre- or post-emergence applications were made with spray applications using 100-300 l/water per hectare. The growth stage of the crops species at the time of application are reported in the result tables. The dose rates of the herbicidal active ingredients applied alone respective in sequential application are also described in the result tables.
(§3) The assessments have been done via visual ratings (0-100% scale) or counting. The trials have been harvested after crops reached the full maturity. After the harvest the total weight of kernels/seeds/beets per plot was measured. The results are reported as means over 2-4 replications. The time between applications and assessments or countings/harvest are described in the result tables as well.
(§4) The active ingredients have been applied to the untreated, dry seeds together with a carrier. After a short period of time to let the seeds dry, they were ready to be sown in the pot or field using standard equipments.

For assay [1], the system named is sugarbeets. The experiment in a line: Field trial: emergence of sugarbeets, seed treatment with isoxadifen. It counts as in vivo, sugarbeet. Conditions: seed treatment 0.015 mg ai/seed.
Source text: as §1, §2, §3, §4

Assay [2] deals with spring wheat. Briefly: Field trial: grain yield effects on spring wheat, postemergence treatment with isoxadifen-ethyl. It counts as in vivo. Particulars: 74 days after application.
Source text: as §1, §2, §3

In another assay the test system is corn. Briefly: Field trial: grain yield effect on corn, sequential treatment with isoxadifen-ethyl. It counts as in vivo.
Source text: as §1, §2, §3, §4

The subject of the next assay is winter wheat. The experiment in a line: Field trial: grain yield effects on winter wheat, postemergence treatment with isoxadifen-ethyl. It counts as in vivo. Conditions: 84 days after application.
Source text: as §1, §2, §3

In a further assay the test system is sugarbeet. Briefly: Field trial: yield effects on sugarbeet, sequential application of isoxadifen-ethyl. It counts as in vivo.
Source text: as §1, §2, §3, §4

Assay [3] concerns spring wheat. Briefly: Field trial: grain yield effects on spring wheat, seed treatment with isoxadifen-ethyl. It counts as in vivo. Conditions: 158 days after application.
Source text: as §1, §2, §3, §4

Assay [4] deals with sugarbeets. Briefly: Field trial: sugar yield of sugarbeets, sequential application. It counts as in vivo, sugarbeet.
Source text: as §1, §2, §3, §4

Assay [5] has as its system spring oilseed rape (canola). Briefly: Field trial: grain yield effects on spring oilseed rape (canola), postemergence treatment with IDF-Et + TBC. It counts as in vivo. Conditions: 92 days after application. The source says: The trials have been carried out under natural field conditions (plot trials, 10 square meter plots, 2-4 replications). The applications have been done with seed treatment, pre- or post-emergence treatments straight (alone, 1 application) or sequential treatments e.g. seed treatment followed by pre-emergence and/or post-emergence spray applications. The pre- or post-emergence applications were made with spray applications using 100-300 l/water per hectare. The growth stage of the crops species at the time of application are reported in the result tables. The dose rates of the herbicidal active ingredients applied alone respective in sequential application are also described in the result tables. The assessments have been done via visual ratings (0-100% scale) or counting. The trials have been harvested after crops reached the full maturity. After the harvest the total weight of kernels/seeds/beets per plot was measured. The results are reported as means over 2-4 replications. The time between applications and assessments or countings/harvest are described in the result tables as well.

[6] abbreviates: grain yield relative to UTC (100%), 100 g ai/ha post-emergence.
The mark [7] stands for this setting: grain yield, 100 g ai/ha post-emergence.

Take `O=C(O)C1=NOC(c2ccccc2)(c2ccccc2)C1` [IDF, 5,5-diphenyl-2-isoxazolinecarboxylic acid]: the Yield with winter oilseed rape (3 g ai/kg seed fb 3 × 50 g ai/ha post (4-6 leaves, stem elongation, beginning of flowering), grain yield at harvest, 102 days after application) was determined as 2.63 t/ha. In addition, the Relative stood at 105% with winter oilseed rape (grain yield relative to UTC (100%), 3 g ai/kg seed fb 3 × 50 g ai/ha post) and 113.8% in the assay on sugarbeets [1] (emergence relative to UTC (100%), sugarbeets, 28 days after planting). Further, the “Difference(%) vs. UTC” value with winter oilseed rape (grain yield, 3 g ai/kg seed fb 3 × 50 g ai/ha post) is given as “+5%”; in the assay on sugarbeets [1] (emergence, sugarbeets, 28 days after planting), “+13.8%”. For the same molecule, the plants/18 row meters in the assay on sugarbeets [1] (emergence of sugarbeets, counting 28 days after planting) is given as 74 plants/18 row meters.

For `CCOC(=O)C1=NOC(c2ccccc2)(c2ccccc2)C1` [IDF-Et, ethyl 5,5-diphenyl-2-isoxazolinecarboxylate], the Yield in the assay on spring wheat [2] (100 g ai/ha post-emergence spring, flag leaf/beginning of ear heading, grain yield at harvest) is given as 7.67 t/ha; in the assay with corn (0.5 g ai/kg seed fb 3 × 50 g ai/ha post (2-4, 6-8, 10-12 leaves), grain yield at harvest, 72 days after application) it was 10.80 t/ha; in the assay with winter wheat (100 g ai/ha post-emergence spring, beginning of stem elongation, grain yield at harvest), 8.09 t/ha; in the assay with sugarbeet (0.015 mg ai/seed fb 3 × 50 g ai/ha post (2-4, 6-8, 10-12 leaves), yield of beets by weight at harvest, 162 days after application) it was 65.3 t/ha; in the assay on spring wheat [3] (seed treatment 0.5 g ai/kg seed (prior planting), grain yield at harvest), 6.58 t/ha. For the same molecule, the Relative % in the assay on spring wheat [2] (setting [6]) amounted to 113.2%; in the assay on winter wheat (setting [6]) it was 109.0%; in the assay with spring wheat [3] (grain yield relative to UTC (100%), seed treatment 0.5 g ai/kg seed) it was 108.7%. For the same molecule, the “Difference(%) vs. UTC” value is recorded as “+13.2%” in the assay on spring wheat [2] (setting [7]); “+24%” with corn (grain yield, 0.5 g ai/kg seed fb 3 × 50 g ai/ha post); “+9%” in the assay with winter wheat (setting [7]); “+11.2%” in the assay on sugarbeet (beet yield, 0.015 mg ai/seed fb 3 × 50 g ai/ha post); “+8.7%” in the assay with spring wheat [3] (grain yield, seed treatment 0.5 g ai/kg seed); “+8.6%” in the assay on sugarbeets [4] (sugar yield, 0.015 mg ai/seed fb 3 × 50 g ai/ha post). Further, the Relative amounted to 124% with corn (grain yield relative to UTC (100%), 0.5 g ai/kg seed fb 3 × 50 g ai/ha post); 111.2% in the assay on sugarbeet (beet yield relative to UTC (100%), 0.015 mg ai/seed fb 3 × 50 g ai/ha post); 108.6% with sugarbeets [4] (sugar yield relative to UTC (100%), 0.015 mg ai/seed fb 3 × 50 g ai/ha post). Moreover, in the assay on sugarbeets [4] (0.015 mg ai/seed fb 3 × 50 g ai/ha post (2-4, 6-8, 10-12 leaves), sugar yield by weight at harvest, 162 days after application), the “Sugar Yield” value was determined as 6.19 t/ha.

For the molecule `CC(C)(C)C(O)(CCc1ccc(Cl)cc1)Cn1cncn1` (stereo not drawn) [TBC, tebuconazole], the Relative % in assay [5] (grain yield relative to UTC (100%), canola, TBC 150, IDF-Et 100 g ai/ha) amounted to 101.8%. In addition, the “Difference(%) vs. UTC” value in assay [5] (grain yield, canola, TBC 150, IDF-Et 100 g ai/ha) is reported as “+1.8%”. Besides, in [5] (spring oilseed rape (canola), TBC 150 g ai/ha, IDF-Et 100 g ai/ha, post-emergence spring, beginning of flowering, grain yield at harvest), the Yield is recorded as 3.98 t/ha.
